The values that follow come from patent US20230034248A1, “PLANT STOMATA OPENING PROMOTING AGENT” (OAT Agrio Co., Ltd., priority 2019, published 2023).

The subject of the assay is tomato seedlings. As to the kind of experiment: Abscisic acid-induced stomatal closure inhibitory activity, second evaluation (foliar spray, ratio of open stomata). Type of assay: in vivo, tomato (cultivar: Ponderosa). To be noted: for ratio of open stomata as compared to without the addition (student's t-test) / ratio of open stomata as compared to without the addition: 30 μM abscisic acid. Here is the method:
(§1) On Jun. 31, 2018, a seedling pot (Bee pot Y-55, manufactured by CANELON C.E) was filled with the culture soil, Kumiai Gardening Seedling Culture Soil AISAI No. 1 (manufactured by Katakura & Co-op Agri Corporation), to be level with the upper side of the pot. Two seeds of tomato (cultivar: Ponderosa) were planted in each pot, and the seedling pot was placed in a climate chamber (25° C., dark period/bright period: 11 h/13 h, bright period: 6:00 a.m. to 19:00 p.m.) at the Cultivation Research Center of OAT Agrio Co., Ltd. Water was supplied from the bottom of the pot, and plants were selected at the time of cotyledon development. At 8:30 a.m. on August 21, chemical solutions each prepared by dissolving 100 ppm of Tween (registered trademark) 80, 30 μM of abscisic acid, and 0 (Comparative Example 12), 100, 300, or 500 μM of steviol were sprayed evenly onto above-ground parts of crops grown to a plant age of about 4 in leaf number. At 11:30 a.m. and 16:00 p.m. on the same day, stomata on the underside of the top leaflet of the second leaf of crops were sampled on a cover glass with an instant adhesive (instant bond for general use AronAlpha (registered trademark) manufactured by TOAGOSEI CO., LTD.) thereon to prepare samples for stomatal observation. These samples were observed under a microscope (magnification 1,000×) to count the number of open or closed stomata in 100 or more stomata, and the ratio of open stomata was calculated according to the following equation:
ratio (%) of open stomata=100×(number of open stomata)/(total number of investigated stomata) (Equation)
The investigations were made in quadruplicate for each treatment condition. A significance test was performed by student's t-test on the ratio of open stomata obtained from the investigation of each individual plant against the ratio of open stomata obtained for the plot without the addition of steviol (0 μm: Comparative Example 12).
as §1, with “Feb. 27,” for “Jun. 31,”, “March 15,” for “August 21,”, “13),” for “12), 100,”, “stevioside” for “steviol”, “3” for “4”, “equation: […]” for “equation:”
The investigations were made in quadruplicate for each treatment condition. A significance test was performed by student's t-test on the ratio of open stomata obtained from the investigation of each individual plant against the ratio of open stomata obtained for the plot without the addition of stevioside (0 μm: Comparative Example 13).
On Mar. […]

The mark [1] stands for this setting: 100 μM with 30 μM abscisic acid, sprayed 8:30, Time (11:30).
Setting [2] is: 300 μM with 30 μM abscisic acid, sprayed 8:30, Time (11:30).
Setting [3] is: 500 μM with 30 μM abscisic acid, sprayed 8:30, Time (11:30).
[4] abbreviates: every addition concentration (100, 300, 500 μM) and every investigation time.
The mark [5] stands for this setting: 300 μM with 30 μM abscisic acid, sprayed 8:30, Time (16:00).
Setting [6] is: 500 μM with 30 μM abscisic acid, sprayed 8:30, Time (16:00).

As to `C=C1C[C@@]23CC[C@H]4[C@@](C)(CCC[C@@]4(C)C(=O)O[C@@H]4O[C@H](CO)[C@@H](O)[C@H](O)[C@H]4O)[C@@H]2CC[C@]1(O[C@@H]1O[C@H](CO)[C@@H](O)[C@H](O[C@@H]2O[C@H](CO)[C@@H](O)[C@H](O)[C@H]2O)[C@H]1O[C@@H]1O[C@H](CO)[C@@H](O)[C@H](O)[C@H]1O)C3` [rebaudioside A], the “Ratio (%) of Open Stomata” value by setting is: under setting [1], 56.6 ± 5.8%; (100 μM with 30 μM abscisic acid, sprayed 8:30, Time (16:30)) 50.0 ± 3.2%; under setting [2], 58.6 ± 4.6%; (300 μM with 30 μM abscisic acid, sprayed 8:30, Time (16:30)) 51.2 ± 2.1%; under setting [3], 56.5 ± 3.8%; (500 μM with 30 μM abscisic acid, sprayed 8:30, Time (16:30)) 54.0 ± 6.6%. In addition, the “ratio of open stomata as compared to without the addition (student's t-test)” value (300 and 500 μM) was “statistically significant improvement in the ratio of open stomata”. Besides, the “ratio of open stomata as compared to without the addition” value under setting [4] is listed as “an improvement in the ratio of open stomata”.
Consider `C=C1C[C@@]23CC[C@H]4[C@@](C)(CCC[C@@]4(C)C(=O)O)[C@@H]2CC[C@]1(O)C3` [steviol], for which the “Ratio (%) of Open Stomata” value by setting is: under setting [1], 69.0 ± 5.5%; (100 μM with 30 μM abscisic acid, sprayed 8:30, Time (16:00)) 69.3 ± 3.5%; under setting [2], 62.7 ± 2.5%; under setting [5], 61.9 ± 4.6%; under setting [3], 60.1 ± 7.5%; under setting [6], 62.5 ± 6.8%. The “ratio of open stomata as compared to without the addition (student's t-test)” value under setting [4] is recorded as “statistically significant improvement in the ratio of open stomata”.
For the compound `C=C1C[C@@]23CC[C@H]4[C@@](C)(CCC[C@@]4(C)C(=O)O[C@@H]4O[C@H](CO)[C@@H](O)[C@H](O)[C@H]4O)[C@@H]2CC[C@]1(O[C@@H]1O[C@H](CO)[C@@H](O)[C@H](O)[C@H]1O[C@@H]1O[C@H](CO)[C@@H](O)[C@H](O)[C@H]1O)C3` [stevioside], the “Ratio (%) of Open Stomata” value under setting [2] turned out to be 65.1 ± 6.4%, the “Ratio (%) of Open Stomata” value under setting [5] is listed as 58.0 ± 4.2%, the “Ratio (%) of Open Stomata” value under setting [3] was 45.7 ± 2.7% and the “Ratio (%) of Open Stomata” value under setting [6] amounted to 54.6 ± 3.8%. In addition, the “ratio of open stomata as compared to without the addition (student's t-test)” value (addition concentrations and investigation times other than 500 μM at 11:30 a.m.) is on record as “statistically significant improvement in the ratio of open stomata”. Besides, the “ratio of open stomata as compared to without the addition” value (every addition concentration (300, 500 μM) and every investigation time) is “an improvement in the ratio of open stomata”.
